Here are results for 13 compounds from article PMC12606464, “Investigating NFE2L1 activators for targeted protein aggregate clearance: a follow-up study” (RSC Medicinal Chemistry, 2025).

Type in all cases: cell-based, human
One data set has as its system IRE1/XBP1s. Briefly: XBP1 endoplasmic reticulum stress reporter assay (CMV-XBP-GLuc). The following applies: Figure S5; for Mean 2 (mean of log2-transformed values, treatment; DMSO = 0): N = 3; for Mean diff, DMSO vs. treatment (log2-transformed values): Dunnett's multiple comparisons test. The source says:
Next, we investigated whether the selected RUN compounds activate the NFE2L1 transcriptional program without triggering the unfolded protein response (UPR), a crucial cellular process induced by the accumulation of unfolded proteins in the endoplasmic reticulum (ER), potentially leading to ER stress. To monitor this, an alternative reporter was used to assess the activation of IRE1/XBP1s.[47] IRE1 is a bifunctional serine/threonine kinase and endoribonuclease embedded in the ER membrane, playing a central role in UPR signaling. Its RNase activity facilitates the splicing of X-box binding protein 1 (XBP1) mRNA. The spliced XBP1 acts as a transcription factor, promoting the re-establishment of ER homeostasis by upregulating genes involved in the ER-associated degradation (ERAD) pathway.[48–50] The reporter contains Gaussia luciferase positioned out of frame downstream of the XBP1 splice site, ensuring that active luciferase translation occurs only in the presence of ER stress.[51,52] Cells transfected with this reporter were treated with RUN compounds at 1, 5, and 10 μM, and luciferase activity was measured.
Figure S5: Impact of RUN compounds on ER stress-induced activation of the XBP1 reporter.
HEK293 cells were transfected with the CMV-XBP-GLuc reporter plasmid and allowed to stabilize overnight. Following stabilization, the cells were treated with MG132 or various concentrations of the test compounds (1, 2, 3, 5, 7.5, and 10 µM) for 16 hours. The Gaussia luciferase signal, which reflects XBP1 mRNA splicing, was adjusted based on cell viability as measured by the alamarBlue assay. Data are represented as Geomean ± GeoSD of three independent experiments ( n = 3. Statistical comparison of MG132 and RUN compounds vs DMSO and RUN compounds vs MG132 was performed on log2-transformed values using two-way repeated-measures ANOVA with Geisser –Greenhouse correction, followed by Dunnett’s multiple comparisons test with individual variances computed for each comparison. Results of the analysis are shown in Supplementary Table S15. […]
GraphPad Prism (v 10.6.1).
2.8 XBP1-endoplasmic reticulum (ER) stress reporter assay
HEK293 cells were seeded in 6-well plates and incubated for 24 hours before being transfected with a plasmid containing the CMV-XBP-Gluc reporter using Lipofectamine 2000.(4) After 6 hours, the transfected cells were subsequently transferred to 384-well plates, stabilized overnight, and treated with the proteasome inhibitor and ER stress inducer MG132 and/or various concentrations of RUN compounds (1, 5, and 10 µM) or vehicle (DMSO) for 16 hours. Luciferase activity was normalized to cell viability, which was assessed using the alamarBlue assay. The results are expressed as the fold change compared with the DMSO control, with the experiment conducted in biological triplicate. […]

The test system of the next data set is NFE2L1 pathway. Briefly: 3×PSMA4-ARE-LUC dual luciferase reporter assay in HEK293 cells. The conditions noted are these: Homo sapiens; 5 μM, 16 h, HEK293, luminescence relative to DMSO-treated cells; read-out: NFE2L1 activation [5 μM]. The source says:
In our previous work,[43] we developed a library of NFE2L1 stimulators using a cell-based luciferase reporter assay. This system was based on three tandem copies of the antioxidant response element (ARE) derived from the NFE2L1 target gene proteasome subunit alpha type-4 (3xPSMA4, PSMA4-ARE-LUC). It was designed to detect the proteasome “bounce-back” response induced by proteasome inhibitors such as MG132 or bortezomib.[22,43,45,46] The reporter assay was adapted to a 384-well format and used to evaluate a new set of RUN compounds designed around the structural framework of the RUN-47 activator. We focused on identifying compounds that increased the 3×PSMA4-ARE-LUC signal (Fig. 1A), while simultaneously assessing cytotoxicity (see the SI, Fig. S2). […] In contrast, thiourea- and urea-containing derivatives generally produced only weak to intermediate responses, rarely exceeding a fold change of 7.
Fig. 1 (A) Targeted library screening of RUN compounds using the 3×PSMA4-ARE-LUC dual reporter assay in HEK293 cells. Cells were exposed to RUN compounds (5 μM) for 16 hours, and luciferase activity was measured. Data are presented as the mean ± SD from three independent experiments (n = 3). Results are shown as a fold change in luminescence relative to DMSO-treated cells. Selected hit compounds are highlighted in distinct colours. (B) RUN-89 specifically activates the NFE2L1 pathway. The DDI2 knockout (KO) and parental (WT) HCT116 cells were transfected with the 3×PSMA4-ARE-LUC reporter and treated with 0.5 μM bortezomib (BTZ) and 5 μM RUN-89 for 16 hours. Data are presented as the Geomean ± GeoSD of three independent experiments (n = 3). Statistical analysis was performed on log2-transformed values using two-way repeated-measures ANOVA followed by Šídak's multiple comparison test. (C) RUN-89 selectively triggers downstream signaling events associated with NFE2L1 gene expression. HEK293 cells were transfected with lipid nanoparticles (LNPs) carrying siRNAs targeting NFE2L1 or NFE2L2. LNPs formulated with non-targeting siRNA served as a negative control. Following 24 hours of incubation, cells were treated with 7.5 μM RUN-89 or DMSO (vehicle) for an additional 16 hours. Expression of the proteasomal subunit gene PSMC4 was then quantified by RT-qPCR. Data are shown as the Geomean ± GeoSD from three independent biological replicates (n = 3). Log2-transformed data were analyzed using two-way repeated-measures ANOVA with the Geisser–Greenhouse correction, followed by Tukey's multiple comparison test with individual variances computed for each comparison. Additional results for NFE2L1, NFE2L2, PSMB7, and PSMD12 are presented in SI Fig. S10.
Figure S1: Concentration–response of luciferase cell-based assay (PSMA4-ARE-luc2P reporter) on treatment with RUN-81, RUN-89, and RUN-94. Concentration is plotted on the X-axis. Dose–response relationships were analyzed using a four-parameter logistic curve (4PL), or a bell-shaped dose-response curve, both with weighting 1/Y^2. Dotted lines represent 95% confidence bands. Calculated EC₅₀ values, curve parameters, and asymmetrical confidence intervals are summarized in the accompanying table . Data are presented as mean ± SD from four independent experiments (n=4).
(§1) 2 Biology Experimental Procedures
(§2) Safety statement: No unexpected or unusually high safety hazards were encountered. […]
Most of the cell lines were cultured in Dulbecco's Modified Eagle Medium (DMEM) enriched with 10% fetal bovine serum (FBS) and 2 mM L-glutamine, under standard conditions of 37 °C with 5% CO₂. DNA transfection was performed with Lipofectamine 2000, following the manufacturer's instructions. Transgenic cells were then selected with either G418 (400 µg/mL) or hygromycin B (450 µg/mL), based on the selection marker encoded by the plasmid used. Cell viability was evaluated using the […]

In the next data set the test system is HEK293 cells. Briefly: alamarBlue cytotoxicity assessment in HEK293 cells. The conditions noted are these: 16 h. The procedure:
Figure S2: Concentration-dependent cytotoxicity assessment of RUN compounds.
HEK293 cells were treated for 16 hours with increasing concentrations of RUN compounds (1.25 µM; 2.5 µM; 5; 7.5 and 10 µM) or DMSO (negative control). Cell viability was determined using the alamarBlue assay following the protocol of Riss.(1) Data are presented as means ± SD from three independent experiments (n = 3). Statistical analysis was done using repeated measures one-way ANOVA with Geisser–Greenhouse correction, followed by Dunnett’s multiple comparisons test. *p<0.05. Detailed results of the analysis are shown in […]
(1 picture or pasted object on this page, not shown here)
as §1, §2
Cell lines were sourced from the ATCC (USA) and/or ECACC (UK), namely HCT116 (human colorectal carcinoma), ATCC CCL-247 (RRID:CVCL_0291), HEK-293 (human embryonic kidney), ATCC CRL-1573 (RRID:CVCL_0045), SH-SY5Y (human neuroblastoma), ATCC CRL-2266 (RRID:CVCL_0019). The characteristics of DDI2 knockout cells derived from HCT116 cells have been described previously (Sedlacek et al., 2025). All cell lines were tested for mycoplasma contamination. Most of the cell lines were cultured in Dulbecco's Modified Eagle Medium (DMEM) enriched with 10% fetal bovine serum (FBS) and 2 mM L-glutamine, under standard conditions of 37 °C with 5% CO₂. DNA transfection was performed with Lipofectamine 2000, following the manufacturer's instructions. Transgenic cells were then selected with either G418 (400 µg/mL) or hygromycin B (450 µg/mL), based on the selection marker encoded by the plasmid used. […]

The subject of a further data set is SNCA-EGFP. Briefly: SNCA-EGFP degradation in SH-SY5Y cells. The procedure: This reporter is prone to aggregation because of its slow protein turnover. To assess compound efficacy, we measured the fluorescence signal of GFP-tagged synuclein within aggregates.
The GFP fluorescence signal was then normalized to that of the DMSO control and the cell number. The experiment was performed in at least five biological replicates. Statistical analysis was performed using paired t-tests with Holm–Šídák correction for multiple comparisons (α = […]
SH-SY5Y cells stably expressing SNCA-EGFP were seeded on a plate and allowed to […]
tadalafil (5 µM), or RUN compounds at a concentration of 1 µM or treated with an equivalent volume of DMSO dissolved in buffer as a vehicle control. The treatment was performed for 16 hours and then fluorescence was measured. The GFP signal intensity was normalized to both the DMSO control and the cell count.

[1] abbreviates: HEK293, alamarBlue, concentration not given.
[2] abbreviates: SH-SY5Y, SNCA-EGFP degron, Figure S7.

Peptide text beside a SMILES is read from it. * marks the point of attachment. Cbz = O=C(OCc1ccccc1)*

Regarding `CC(C)C[C@@H](C=O)NC(=O)[C@H](CC(C)C)NC(=O)[C@H](CC(C)C)NC(=O)OCc1ccccc1` [MG132] (Cbz-Leu-Leu-Leu-aldehyde), the “Mean 2 (mean of log2-transformed values, treatment; DMSO = 0)” value in the data set with IRE1/XBP1s (1 µM) is reported as 2.106; in the data set on IRE1/XBP1s (5 µM), 2.725; in the data set with IRE1/XBP1s (10 uM), 3.956. In addition, the “Mean diff, DMSO vs. treatment (log2-transformed values)” value in the data set on IRE1/XBP1s (DMSO vs. 1 µM) was -2.106; in the data set with IRE1/XBP1s (DMSO vs. 5 µM), -2.725; with IRE1/XBP1s (DMSO vs. 10 uM), -3.956.
As for `COc1ccc(/C=C2\CC(NC(=O)C34CCN(CC3)CC4)C/C(=C\c3ccc(OC)c(OC)c3)C2=O)cc1OC` (stereo not shown) [RUN-87], the fold induction at 5 µM in the data set on NFE2L1 pathway was found to be 1. In the data set on HEK293 cells (human), the “Tox [% of ctrl.]” value is 101% of ctrl.
Regarding `COc1ccc(/C=C2\CC(NC(=O)CN)C/C(=C\c3ccc(OC)c(OC)c3)C2=O)cc1OC.O=C(O)C(F)(F)F` (stereo not shown) [RUN-92], the fold induction at 5 µM with NFE2L1 pathway came out at 1.6. In addition, the “Tox [% of ctrl.]” value with HEK293 cells (setting [1]) was 90% of ctrl.
The matching figures for `COc1ccc(/C=C2\CN(C(=O)[C@@H]3CCC(=O)N3)C/C(=C\c3ccc(OC)c(OC)c3)C2=O)cc1OC` [RUN-110]: 1.8 and 85% of ctrl.
Turning to `CN1CC(=O)N2[C@H](c3ccc4c(c3)OCO4)c3[nH]c4ccccc4c3C[C@@H]2C1=O` [tadalafil, reference compound], the “EGFP-SNCA aggregation (GFP signal)” value in the data set on SNCA-EGFP (SH-SY5Y SNCA-EGFP, 16 h, RUN compounds 1 μM, PD169316 3 μM, tadalafil 5 μM) is “reduction”. Further, in the data set with SNCA-EGFP (setting [2]), the “Geometric mean of ratios (paired t tests, Treatment vs Control = 100)” value is recorded as -20.51 and the “Geometric mean, Treatment (Control = 100)” value is given as 79.49.
As to `COc1ccc(/C=C2\CN(C(=O)CN3CCOCC3)C/C(=C\c3ccc(OC)c(OC)c3)C2=O)cc1OC.O=C(O)C(F)(F)F` [RUN-112], in the data set on NFE2L1 pathway, the fold induction at 5 µM turned out to be 6.6. Also, the “Tox [% of ctrl.]” value in the data set with HEK293 cells (setting [1]) is listed as 81% of ctrl.
`COc1ccc(/C=C2/C(=O)/C(=C/c3ccc(OC)c(OC)c3)C3CCC2N3Cc2ccc(C#N)cc2)cc1OC` [RUN-80]: in the data set on NFE2L1 pathway, the fold induction at 5 µM amounted to 2. In addition, the “Tox [% of ctrl.]” value in the data set on HEK293 cells (human) is on record as 98% of ctrl.
With `COCCOCCOCC(=O)N1C/C(=C\c2ccc(OC)c(OC)c2)C(=O)/C(=C/c2ccc(OC)c(OC)c2)C1` [RUN-82], the fold induction at 5 µM in the data set with NFE2L1 pathway is 3.2. Besides, the “Tox [% of ctrl.]” value with HEK293 cells (setting [1]) was 85% of ctrl.
For `COc1ccc(/C=C2\CC(NC(=O)CN3CCOCC3)C/C(=C\c3ccc(OC)c(OC)c3)C2=O)cc1OC.O=C(O)C(F)(F)F` (stereo not shown) [RUN-98], in that order: 2.1 and 102% of ctrl.
The matching figures for `COc1ccc(/C=C2\CN(C(=O)Cc3c[nH]cn3)C/C(=C\c3ccc(OC)c(OC)c3)C2=O)cc1OC` [RUN-109]: 4.3 and 78% of ctrl.
The matching figures for `COc1ccc(/C=C2\CC(NC(=O)Cc3c[nH]cn3)C/C(=C\c3ccc(OC)c(OC)c3)C2=O)cc1OC` (stereo not shown) [RUN-95]: 2 and 96% of ctrl.
With `COc1cccc(NC(=O)N2C/C(=C\c3ccc(OC)c(OC)c3)C(=O)/C(=C/c3ccc(OC)c(OC)c3)C2)c1` [RUN-76], the fold induction at 5 µM in the data set on NFE2L1 pathway was 6.8. For the same compound, the “Tox [% of ctrl.]” value in the data set on HEK293 cells (setting [1]) is 88% of ctrl.
The matching figures for `COc1ccc(/C=C2\CC(NC(=O)C3CCC(=O)N3)C/C(=C\c3ccc(OC)c(OC)c3)C2=O)cc1OC` (stereo not shown) [RUN-97]: 1.6 and 99% of ctrl.
